Experimental data from US20240199571A1, “THIOPHENE COMPOUND AND APPLICATION THEREOF” (MEDSHINE DISCOVERY INC., priority 2021, published 2024).
Counter-ions that a name gives are not always drawn.

Tests used:
NCI-H1417 cells = experiment: Experiment 2: inhibition of NCI-H1417 cell proliferation (CellTiter-Glo, 10 days); assay type: cell-based; conditions: Homo sapiens, 240 h, 10 days incubation
How it was run: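 Cells at 1000 per well exposed to 10-point 3-fold dilutions from 10 μM top concentration for 10 days. Viability by CellTiter-Glo luminescence; inhibition normalized to max/min controls, IC50 from four-parameter fit.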

[1] = target: hERG potassium ion channels (Homo sapiens (Human), UniProt Q12809); experiment: Experiment 4: hERG potassium ion channel inhibition, automated patch clamp (Qpatch), CHO-hERG cells; assay type: cell-based; conditions: highest test concentration 40 μM
How it was run: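 Whole-cell automated patch clamp on CHO-hERG cells held at −80 mV: 50 ms −50 mV prepulse, 5 s +40 mV step, 5 s repolarization to −50 mV, every 15 s. Six final concentrations from 0.165 to 40 μM applied ascending, 2.5 min each; n≥3 cells per concentration.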

hERG potassium ion channels, sequence (Q12809 whole entry): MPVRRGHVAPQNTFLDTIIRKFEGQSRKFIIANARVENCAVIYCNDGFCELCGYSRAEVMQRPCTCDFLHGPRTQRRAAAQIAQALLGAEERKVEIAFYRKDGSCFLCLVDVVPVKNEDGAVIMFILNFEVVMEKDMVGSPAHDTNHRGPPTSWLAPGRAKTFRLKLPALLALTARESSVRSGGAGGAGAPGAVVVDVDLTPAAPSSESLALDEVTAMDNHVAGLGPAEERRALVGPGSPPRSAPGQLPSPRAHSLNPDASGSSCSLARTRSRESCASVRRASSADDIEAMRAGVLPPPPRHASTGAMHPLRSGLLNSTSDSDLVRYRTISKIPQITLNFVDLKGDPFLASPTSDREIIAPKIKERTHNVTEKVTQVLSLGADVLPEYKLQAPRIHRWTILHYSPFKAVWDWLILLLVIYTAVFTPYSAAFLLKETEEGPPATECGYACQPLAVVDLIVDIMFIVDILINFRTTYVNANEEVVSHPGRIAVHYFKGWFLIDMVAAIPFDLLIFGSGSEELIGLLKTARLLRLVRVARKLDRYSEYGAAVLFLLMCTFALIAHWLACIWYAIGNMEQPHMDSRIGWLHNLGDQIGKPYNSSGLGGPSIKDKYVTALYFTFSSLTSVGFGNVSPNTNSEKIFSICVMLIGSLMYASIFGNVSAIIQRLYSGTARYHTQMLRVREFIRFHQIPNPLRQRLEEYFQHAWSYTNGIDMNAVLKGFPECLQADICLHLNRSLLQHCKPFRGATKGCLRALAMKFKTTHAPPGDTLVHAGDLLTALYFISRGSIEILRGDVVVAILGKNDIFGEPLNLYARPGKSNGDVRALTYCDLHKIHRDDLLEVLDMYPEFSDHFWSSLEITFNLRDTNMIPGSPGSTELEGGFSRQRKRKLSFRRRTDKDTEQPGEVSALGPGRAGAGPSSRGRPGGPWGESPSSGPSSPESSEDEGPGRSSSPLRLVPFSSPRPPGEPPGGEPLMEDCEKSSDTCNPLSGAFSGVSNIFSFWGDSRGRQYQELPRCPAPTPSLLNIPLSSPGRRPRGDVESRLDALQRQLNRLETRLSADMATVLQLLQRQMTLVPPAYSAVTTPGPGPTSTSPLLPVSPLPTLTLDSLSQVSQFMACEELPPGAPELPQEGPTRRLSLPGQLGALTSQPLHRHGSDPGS

Row | IC50 (NCI-H1417 cells) [nM] | SMILES | IC50 [1] [µM]
1 | 0.07 | CN[C@@H]1CCCN(C(=O)c2cc(-c3ccc(C#N)c(F)c3)c(-c3cc4nnn(CC(C)(C)O)c4c(F)c3F)s2)C1 [Hydrochloride of compound 98] | 18.6
2 | 5.11 | CC(C)(CO)n1cc2cc(-c3sc(C(=O)N4CCC[C@@H](N)C4)cc3-c3ccc(C#N)c(F)c3)ccc2n1 [Hydrochloride of compound 87] | 13.4
